Experimental data: US8697643B2, “Method for controllably releasing a drug conjugate within subcutaneous tissue in response to the local concentration of an indicator” (priority 2005, dated 2014)

What was measured:
[1] = system: fasted normal rats (Male Sprague-Dawley); assay: blood glucose depression and serum insulin profiles after subcutaneous injection; type: in vivo, rat
Procedure: Subcutaneous injections of insulin-polymer conjugates or insulin controls are administered at a dose between 1 and 10 equivalent U insulin/kg body weight behind the neck of fasted normal […] rats (Male Sprague-Dawley, 200-250 g, n=2-4). Blood samples are collected via tail vein bleeding at −15 and 0 minutes, and at 15, 30, 45, 60, 90, 120, 180, 240, 300 and 360 minutes after injection. Blood glucose values are measured using commercially available test strips (Precision Xtra, Abbott Laboratories, Abbott Park, Ill.). The remaining blood is centrifuged to obtain serum and stored in a freezer until measured for serum insulin levels. Serum insulin is measured using an ELISA kit (ALPCO Diagnostics, Windham, N.H.). Pharmacodynamic (PD) parameters such as time to reach minimum blood glucose concentration (Tnadir) and duration over which the blood glucose level remains below 70% of initial value (T70% BGL), are determined according to published methods for subcutaneous delivery. Pharmacokinetic (PK) parameters such as time to reach maximum serum insulin concentration (Tmax), mean insulin residence time (MRT), and mean insulin absorption time (MAT), are determined according to published methods for subcutaneous delivery using commercially available ELISA assays (ALPCO Diagnostics, Windham, N.H.). The blood glucose depression curve and corresponding serum insulin profile for each formulation may then be compared to those obtained for an insulin control to determine any differences in the timing and extent of the insulin action.
The in vivo digestion behavior of the insulin-glycogen conjugate was assessed via subcutaneous injection (alone without a glucose-binding molecule such as Con A) into normal male SD rats.
Subcutaneous injections of insulin-dextran were administered using 0.25 ml of a sterilized 1×PBS solution (0.88 equivalent mg insulin/[…]) behind the neck of two fasted normal rat groups (Male Sprague-Dawley, 200-250 g, n=4). Measurements of glucose and insulin values from tail vein blood samples were performed at −15 and 0 minutes, and at 15, 30, 45, 60, 90, 120, 180, 240, 300 and 360 minutes after injection.

human salivary amylase = target: T1, human salivary amylase (Homo sapiens, UniProt P0DUB6); assay: in vitro amylase digestion assay of insulin-glycogen (SDS-PAGE); type: in vitro ADME; conditions: SDS-PAGE after incubation with amylase
T1 construct: from tissue; host or cells: human saliva (whole, diluted in 1x PBS)
T1 sequence (P0DUB6 16-511): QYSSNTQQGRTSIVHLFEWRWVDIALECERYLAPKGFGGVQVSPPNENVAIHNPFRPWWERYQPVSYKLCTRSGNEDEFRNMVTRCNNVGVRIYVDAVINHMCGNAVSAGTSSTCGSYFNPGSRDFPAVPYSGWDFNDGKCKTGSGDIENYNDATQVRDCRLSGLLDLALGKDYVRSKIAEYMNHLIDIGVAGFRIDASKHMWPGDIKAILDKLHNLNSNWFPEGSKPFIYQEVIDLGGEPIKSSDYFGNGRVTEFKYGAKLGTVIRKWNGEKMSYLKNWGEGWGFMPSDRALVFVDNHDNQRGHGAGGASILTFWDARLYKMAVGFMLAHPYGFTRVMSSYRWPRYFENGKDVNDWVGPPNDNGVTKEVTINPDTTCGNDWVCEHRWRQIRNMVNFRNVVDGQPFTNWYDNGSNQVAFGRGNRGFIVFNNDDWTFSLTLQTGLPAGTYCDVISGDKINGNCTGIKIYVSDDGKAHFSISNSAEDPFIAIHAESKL
Procedure: As previously discussed, once an insulin-glycogen conjugate is released from an inventive glucose-responsive material, it is digested by amylases that breakdown the large molecular weight insulin-glycogen conjugate into low molecular weight conjugates in vivo. […] An in vitro amylase digestion assay was performed to qualify the proposed insulin-glycogen degradation mechanism. […] The saliva sample was serially diluted 1:2 in 1×PBS buffer to 1:512.90 μL aliquots of each of the 1:4, 1:16, 1:64, 1:128, 1:256, and 1:512 dilutions were added to pre-prepared microcentrifuge tubes containing 90 μL of undiluted insulin-glycogen. […] The gels were run in SDS running buffer for 45 minutes to an hour at a constant voltage of 150 V. Under these conditions, the amylase completely digested the insulin-glycogen conjugate into native MW insulin at the 1:16 dilution level as quantified by the relative band density of high MW conjugate to that of native MW insulin.
SDS-PAGE has confirmed that the insulin-glycogen conjugate is essentially free from unconjugated insulin (FIG. 5a). […] Serum was collected from the other catheter as a function of time and analyzed for fluorescence (fmax, Molecular Devices, Sunnyvale, Calif.) to determine glycogen absorption rate and insulin levels (RIA, Joslin Diabetes Center).

non-diabetic felines = assay: euglycemic clamp protocol in non-diabetic felines; type: in vivo, feline; conditions: 0.5 U/kg conjugate (FIG. 6)
[2] = system: normal and STZ-diabetic rats; assay: disappearance of fluorescently labeled gel components from the injection site; type: in vivo, rat; conditions: gel injected under the skin
Description: The inventive gel of Example 21, has viscosity characteristics that allow easy loading and injection through a standard 27½G insulin syringe obviating the need for invasive surgery. […] This is necessary to avoid unwanted material accumulation after repeated daily dosing. To illustrate this point, gels were synthesized from (i) fluorescently-labeled insulin-glycogen conjugate (FITC-conjugate)/unlabeled Con A and (ii) unlabeled insulin-glycogen conjugate/fluorescently-labeled Con A (FITC-Con A) in the presence of India ink (SpeedBall® Superblack) and injected under the skin of both normal and STZ-diabetic rats on Days 2, 1, and 0 in order to simultaneously observe the injection site post-mortem and monitor the rate of disappearance of each of the components by fluorescence imaging.
Taken together, not only is the insulin-glycogen conjugate removed completely from the injection site, its rate of disappearance is dependent on the glycemic state of the animal (i.e. hyperglycemia leads to more rapid elimination of material from the site).

[3] = s.c. 0.25 ml, fasted normal male SD rats
[4] = FIG. 4b, s.c. 2.5 U of conjugated insulin/kg, male SD rats
[5] = s.c. injection alone, normal male SD rats

Substance | time serum glucose levels remain depressed post injection [1, 3] | time to reach the glucose nadir (Tnadir) [1, 3] | time to return to within 70% of fasting glucose levels (T70% BGL) [1, 3] | degradation by amylases (human salivary amylase) | T70% BGL [1, 4] [min] | Tnadir (blood glucose) [1, 4] [min] | time to reach glucose nadir (Tnadir) [1, 5] [min] | time to return to within 70% of fasting glucose levels (T70% BGL) [1, 5] | speed of insulin action compared with unconjugated insulin ([1]; s.c., normal male SD rats) | conjugate bioactivity in euglycemic clamp (non-diabetic felines) | elimination from the injection site (fluorescence imaging) ([2]; STZ-diabetic rats) | elimination from the injection site (fluorescence imaging) ([2]; normal rats)
insulin-dextran: human recombinant insulin coupled to dextran (MW=70K) by CNBr; comparative conjugate [reference compound] | at least five | about 3 h | greater than 2.5 hours | – | – | – | – | – | – | – | – | –
insulin-glycogen conjugate: human recombinant insulin covalently linked to glycogen by CNBr or CDAP coupling; glycogen source differs between examples | – | – | – | rapidly degraded by amylases in vitro and in vivo | ~150 | 30 to 45 | 30 to 45 | less than 180 minutes | acts just as rapidly as unconjugated insulin in vivo | confirmed the conjugate bioactivity | completely eliminated from the injection site in STZ-diabetic rats both one and two days after injection | still remained at the injection site after one day
